The results in this text go back to patent US20220275403A1, “Methods And Compositions For Enhancing AAV-Mediated Homologous Recombination Using Ribonucleotide Reductase Inhibitors” (The Board of Trustees of the Leland Stanford Junior …, priority 2019, published 2022).

Each structure is given as a SMILES string. Entries after “also recorded” stand apart in the source; their conditions may differ.

Data set [1] concerns genomic albumin (Alb) locus, mouse liver. Nature of the data set: In vivo gene targeting with rAAV8 Alb-P2A-hF9 vector, serum hF9 by ELISA. The conditions noted are these: for serum hF9 protein levels: vs vehicle; for serum hF9 levels: 2 months after AAV injection; for hF9 expression (plasma/serum hF9 levels): mice, drug ip three sequential days, rAAV8 Alb/F9 on first day, vs controls. The procedure:
FIG. 5 Depicts results from in vivo delivery of AAV-based HR in mice. A schematic depicts the injection schedule. rAAV was used to deliver a donor sequence encoding human coagulation factor IX (hF9) into the genomic Albumin (Alb) locus. Plasma hF9 expression in the mouse liver was measured as an assay to detect integration and expression of the integrated donor sequence. […] Experimental plan and time schedule: each drug was given three sequential days by ip injection and AAV was injected at first day with 1e11 vector genome (vg)/g body weight. Serum samples were collected at each time point and hF9 levels were measured by ELISA. Body weight of each mouse were measured to monitor the toxic effect of each drug.
The efficacy of RNR inhibitors in vivo was tested using an AAV8 vector that incorporates a Alb/F9 targeting sequence. The “Alb/F9” targeting vector was an AAV that included a donor DNA having a nucleotide sequence of interest flanked by homology arms that facilitated integration of the sequence of interest into the genomic albumin (Alb) locus. The nucleotide sequence of interest in this case was a 2A peptide sequence 5′ of a sequence encoding human coagulation factor IX (hF9). Thus, once integrated into the genomic locus, the 2A peptide sequence was present between the endogenous albumin coding sequence and the introduced/integrated hF9 coding sequence such that expression of hF9 mRNA was under the control of the albumin promoter but translation of the transcript led to two separate proteins (albumin and hF9). […] Thus, the lack of efficacy observed based on hF9 liver expression (see FIG. 5) is likely due to low/substantially no HU in the liver (FIG. 6). Given the in vitro HU results and the in vitro and in vivo fludarabine results—in addition to the gemcitabine results of FIG. 7, it is likely and expected that AAV-based HR is enhanced in vivo by HU in organs/tissues other than the liver (e.g., kidney, spleen, heart, lung, testes, brain, etc.).
B6 mice were received tail vain injections of rAAV8 packaging each vector at the designated dose and were bled at indicated time points. Body weight of mice were measured using Scout pro portable scale (Ohaus) at indicated time points. Serum samples were obtained by centrifuge at 10,000 rpm for 10 minutes and used for ELISA assay of hF9. Hydroxyurea or fludarabine was resuspended in PBS and were injected intraperitoneally with indicated dose/regimen. For BrdU labeling of proliferating mice hepatocytes, BrdU was resuspended in PBS and were intraperitoneally injected for indicated time periods at 200 mg/kg per day for 3 days or 7 days. Diethylnitrosamine solution was prepared using saline and was also intraperitoneally injected for 3 days at 10 or 30 mg/kg. At the end of experiments, mice were anesthetized with isoflurane and perfused transcardially with PBS and then liver tissues were quickly harvested and cut into several pieces. The tissues for mRNA extractions were immediately submerged in RNAlater solution (Sigma) and stored at 4° C. until use. For gDNA or protein extraction, tissues were snap-frozen in liquid nitrogen and stored at −80° C. until use.
(§1) Mice serum samples were used to quantify hF9 protein expression levels. ELISA for hF9 was performed as previously described with the following antibodies: mouse anti-hF9 IgG primary antibody at 1:1,000 (Sigma Cat#F2645), and polyclonal goat anti-hF9 peroxidase-conjugated IgG secondary antibody at 1:4,000 (Enzyme Research Cat#GAFIX-APHRP).
(ELISA stands for enzyme-linked immunosorbent assay.)

A further data set deals with P Ser139 γH2AX. Nature of the data set: P Ser139 γH2AX DNA damage response in mouse liver (IHC, Western blot). Background: Immunoblotting shows a protein as a band on a membrane.
For a further data set, the system named is mouse liver. The data set can be described thus: qPCR of liver DNA and mRNA after Alb-P2A-hF9 vector injection.
Data set [2] in a line: Body weight of treated mice. Particulars: for body weight: mice, drug ip three sequential days plus rAAV8 Alb/F9, relative to controls.
For data set [3], the system named is Albumin gene locus, mouse hepatocytes. Nature of the data set: CRISPR/Cas9-mediated gene editing in vivo, SaCas9-sgRNA8 plus rAAV8-Alb-P2A-GFP, GFP staining of liver. The conditions noted are these: vs PBS, Alb-P2A-GFP 6.0×10^12 or 3.0×10^13 vg/kg, 2 weeks after AAV injection.
For the next data set, the system named is murine ApoE locus. The data set can be described thus: In vivo gene targeting with rAAV8-ApoE-P2A-hF9 vector, serum hF9. The conditions noted are these: vs PBS. Also on record: species or system mouse. The procedure:
Serum was collected at various times across a nearly 60-day time course and hF9 protein levels were determined. Error bars represent s.e.; n=4
Also examined was whether fludarabine-mediated enhancement of gene targeting was Albumin specific—this was done by designing a vector targeting an alternative genomic locus, ApoE. ApoE is highly and specifically expressed in hepatocytes, similar to Albumin. When 1.0×10^11 vg/mouse of this vector (ApoE-P2A-hF9) was injected with fludarabine treatment, a significant increase in hF9 expression compared to PBS-injected mice was observed (FIG. 12). The fold-increase (3.6-fold at day 54) was similar to findings targeting the Albumin locus.
as §1

A further data set relates to hepatocytes of mice. The data set can be described thus: RNAscope in situ hybridization of hF9 mRNA in liver sections. The data set is classed as in vivo. The conditions noted are these: vs PBS treated mouse.
Another data set has as its system Huh7 cells. Nature of the data set: AAV-HR efficiency, AAV-DJ GAPDH/GFP targeting vector, GFP positive cells by FACS. In kind it is cell-based, human. The conditions noted are these: for HR efficiency (GFP positive population by FACS analysis) / AAV-HR efficiency (GFP positive fraction): Huh7; for HR efficiency (GFP positive population by FACS analysis): AAV-DJ GAPDH targeting vector; for AAV-HR efficiency (GFP positive fraction): FIG. 7, drug pretreatment 16 hours, washed out, FACS 14 days after infection.

The test system of another data set is hepatocytes. The data set can be described thus: BrdU incorporation in mouse liver (hepatocyte proliferation). The data set is classed as in vivo. In general terms: Incorporation of labelled thymidine or its analogues reports DNA synthesis.

`CCN(CC)N=O` [DEN, diethylnitrosamine]: the “serum hF9 protein levels” value in data set [1] (DEN 10 mg/kg, not statistically significant) was around 1.5 fold; in data set [1] (DEN 30 mg/kg, three weeks post rAAV injection), “about 3.6 fold”. In the data set on P Ser139 γH2AX (DEN-treated mice, positive control), the “γH2AX staining of liver sections (IHC)” value was “intense nuclear staining of γH2AX”. Besides, the “endogenous albumin mRNA expression” value with mouse liver (DEN 10 or 30 mg/kg, liver) is reported as “nearly unchanged”. Further, the “total hF9 mRNA expression” value in the data set on mouse liver (DEN high dose (30 mg/kg), liver, vs vehicle) came to 3.9 fold; with mouse liver (DEN low dose (10 mg/kg), liver, vs vehicle) it was 2 fold. Further, in the data set with mouse liver (DEN, both dose groups, liver, vs vehicle), the “on-target HR derived fusion Alb-P2A-hF9 mRNA” value is “about 2 fold”. Also, the body weight gains entry in data set [2] (DEN 10 or 30 mg/kg i.p. once per day for three days, vs vehicle, dose-dependent) is “decreased body weight gains”.

With `Nc1nc(F)nc2c1ncn2[C@@H]1O[C@H](CO)[C@@H](O)[C@@H]1O` [Fludarabine, (2R,3S,4S,5R)-2-(6-amino-2-fluoropurin-9-yl)-5-(hydroxymethyl)oxolane-3,4-diol], the “number of GFP positive hepatocytes” value in data set [3] is given as “increased the efficiency of CRISPR/Cas9-mediated gene editing”; in data set [3] (listed as fludarabine), “increase of the number of GFP positive hepatocytes”. Further, the “serum hF9 levels” value is 6.4 fold in [1] (Flu 125 mg/kg i.p. 3 times per day for five days, vs PBS) and “about 2 fold” in data set [1] (single administration (1 day) of fludarabine). Besides, the “hF9 expression / gene targeting efficiency with delayed dose” value in data set [1] (fludarabine 125 mg/kg i.p. three times per day on days 28-30 after rAAV, serum day 54) is recorded as “little to no effect; also recorded: failed to increase the efficiency of gene targeting”. Further, the “hF9 expression (plasma/serum hF9 levels)” value in [1] is “increased hF9 expression”; in data set [1] (listed as fludarabine) it was “significantly and consistently increased serum hF9 levels”. Further, the “γH2AX in liver tissue lysates (Western blotting)” value with P Ser139 γH2AX (acute phase of fludarabine treatment) is “strong detection of γH2AX”. Further, the “γH2AX foci in liver (IHC)” value in the data set with P Ser139 γH2AX (three-day washout after fludarabine, vs immediately proximal to treatment) is “significantly reduced”; in the data set on P Ser139 γH2AX (time proximate to fludarabine treatment), “widespread nuclear localized γH2AX foci”. Moreover, the “fold-increase in hF9 expression” value in the data set on murine ApoE locus (ApoE-P2A-hF9 1.0×10^11 vg/mouse, day 54) was determined as 3.6 fold. In addition, in the data set with murine ApoE locus (nearly 60-day time course), the “efficiency of gene targeting at the ApoE locus (serum hF9)” value is “increased the efficiency of gene targeting at the ApoE locus”. Moreover, the endogenous albumin expression result in the data set with mouse liver (liver mRNA, fludarabine treatment) is “not changed”. Besides, in the data set on mouse liver (liver, vs PBS, normalized to Actb), the “on-target integrated Alb-P2A-hF9 fusion mRNA expression” value was found to be 5.1 fold. The “total hF9 mRNA” value with mouse liver (liver, vs controls, vector-internal primer set) came out at 4.4 fold. For the same compound, the “frequency of hF9 mRNA positive cells” value in the data set on hepatocytes of mice was “increased the number of hF9 positive hepatocytes”; in the data set on hepatocytes of mice (listed as fludarabine), “clearly more frequent”. The “AAV-HR efficiency in cultured cells” value in the data set with Huh7 cells (FIG. 4, Hun7 cells) is on record as “significantly enhanced AAV-HR efficiency”. The “increase in HR efficiency” value in the data set with Huh7 cells (FIG. 4, vs no RNR inhibitor) came out at 3.5 fold. Moreover, the “HR efficiency (GFP positive population by FACS analysis)” value with Huh7 cells is “reproducibly increased HR efficiency”. Further, the “BrdU incorporation in liver” value with hepatocytes (BrdU for three days in washout phase after fludarabine, vs acute phase) is recorded as “significantly greater”. Besides, the “BrdU labeled nuclei in liver sections” value in the data set with hepatocytes (BrdU given during fludarabine 125 mg/kg three times per day for three days (acute phase)) was “nearly absent”. Besides, the values for the body weight entry in data set [2] and in data set [2] (listed as fludarabine) were “without any body weight change” and “without any body weight loss”, respectively.

In the case of `Nc1ccn([C@@H]2O[C@H](CO)[C@@H](O)C2(F)F)c(=O)n1` [Gemcitabine], in the data set on Huh7 cells, the “AAV-HR efficiency (GFP positive fraction)” value was “enhanced AAV-HR efficiency” and the “HR efficiency (GFP positive population by FACS analysis)” value is on record as “reproducibly increased HR efficiency”.

On to `NC(=O)NO` [Hydroxyurea, hydroxyurea], for which the “hF9 expression (plasma/serum hF9 levels)” value in [1] is “did not exhibit enhancement of hF9 expression”.

With `COc1cc([C@@H]2c3cc4c(cc3[C@@H](O[C@@H]3O[C@@H]5CO[C@@H](c6cccs6)O[C@H]5[C@H](O)[C@H]3O)[C@H]3COC(=O)[C@H]23)OCO4)cc(OC)c1O` [Teniposide, teniposide], in the data set with Huh7 cells, the “AAV-HR efficiency (GFP positive fraction)” value is on record as “no effect” and the “HR efficiency (GFP positive population by FACS analysis)” value is “no effect”.
